Measured values reported in patent publication US12590322B2, “Devices and methods for mitochondria replacement and for generating cellular therapeutics” (NanoCav, LLC, priority 2018, dated 2026).

Key:
[1] = system: BJ cells; assay: mtDNA depletion by ddC in BJ primary fibroblasts, qPCR verification; type: cell-based, human; conditions: for mtDNA levels, % of initial untreated levels: 2.5 μM or 5 μM ddC
Description: FIGS. 11A-11B show generation of mtDNA depleted primary fibroblast lines in BJ cells. FIG. 11A is a bar chart showing that a minimum concentration of 2.5 μM of 2′,3′ dideoxycytidine (ddC), a reverse transcriptase inhibitor, was required to deplete mtDNA to below 5% of the original level, three weeks from initiation of treatment. […] FIG. 11B is a line plot showing the information of FIG. 11A.
(§1) A 1000× stock of 2′,3′-dideoxycytidine (ddC, Sigma, Cat. #D5782) was prepared in water. BJ, ADF, and NDF cells cultured in complete media with 50 µg/ml uridine were added ddC to an appropriate final concentration. Cells were passaged every 3-4 d and fresh ddC was added over the course of 3 weeks. After ddC treatment, total DNA was extracted (Qiagen, Cat. #69504) and mtDNA quantified using SYBR Select Master Mix for CFX (Life Technologies, Cat. #4472942). mtDNA-encoded ND1 was probed with the following primers: forward: […] (SEQ ID NO: 1); reverse: […] (SEQ ID NO: 2). mtDNA levels were normalized to nuclear-encoded GAPDH using the following primers: forward: […] (SEQ ID NO: 3); reverse: […] (SEQ ID NO: 4). qPCR was run on a BioRad CFX Thermal Cycler using the following protocol: 1) 50° C. for 2 min, 2) 95° C. for 2 min, 3) 40 cycles-95° C. for 10 s and 60° C. for 45 s. Samples were compared by calculating ΔΔCT and fold differences.

[2] = system: Adult and neonatal human dermal fibroblast (HDF) cells; assay: mtDNA depletion by ddC in human dermal fibroblasts; type: cell-based; conditions: 5 μM ddC, after sixteen days
Text: FIGS. 12A-12C show generation of mtDNA depleted human dermal fibroblasts cells. […] 143 Rho Null (lacking mtDNA) and a control are also shown. […] GAPDH expression, used as a reference gene, was also shown in adult and neonatal human dermal fibroblast (HDF) cells. FIG. 12B is a table showing depletion of mtDNA in HDF adult and HDF neonatal cells at days sixteen and thirty. FIG. 12C is a line plot showing the data of FIG. 12B.
as §1

[3] = system: BJs; assay: Mutation signature comparison of ddC-treated BJs vs BJ parent, 30X whole genome sequencing; type: cell-based, human; conditions: for # SNVs / % of Total: 5 μM ddC treated BJs vs BJ parent
Description: A comparison of mutation signatures between 5 μM-ddC treated BJs and the BJ parent with 30× whole genome sequencing.

[4] = 5 μM ddC-treated BJs vs. BJ parent
[5] = ddC-treated cells, whole genome sequencing

In the case of `Nc1ccn([C@H]2CC[C@@H](CO)O2)c(=O)n1` [ddC, 2′,3′-dideoxycytidine], the “mtDNA levels, % of initial untreated levels” value ([1]; three weeks from initiation of treatment) is reported as “below 0.5%”, the “mtDNA levels, % of initial untreated levels” value ([1]; two weeks) is reported as “below 2%” and the “minimum concentration required to deplete mtDNA to below 5% of the original level” value ([1]; BJ cells, three weeks from initiation of treatment) is reported as 2.5 µM. For the same molecule, the mtDNA depletion [2] was “mtDNA depletion”, the Mutation rate [3, 4] was 0.6/MB and the Non-synonymous mutations [3, 4] was 26. The “# SNVs” value ([3]; Signature 5) was 2,230, the “% of Total” value ([3]; Signature 5) was 42.0% and the “# SNVs” value ([3]; Signature 8) was 873. The “% of Total” value ([3]; Signature 8) was 16.0%, the “# SNVs” value ([3]; Signature 9) was 854 and the “% of Total” value ([3]; Signature 9) was 16.0%. The “# SNVs” value ([3]; Signature 16) was 200, the “% of Total” value ([3]; Signature 16) was 4.0% and the “# SNVs” value ([3]; Signature 18) was 471. The “% of Total” value ([3]; Signature 18) was 9.0%, the “abundance of non-synonymous mutations” value [3, 5] was “low abundance” and the “changes in DNA copy number” value [3, 5] was “no changes in DNA copy number”. For the same molecule, the chromosomal breaks [3, 5] was “no chromosomal breaks”.
